# Measured values: US9725449B2, “Tricyclic compounds as anticancer agents” (BRISTOL-MYERS SQUIBB COMPANY, priority 2015, dated 2017)
# Target: BRD4 (Homo sapiens, UniProt O60885)
# Assay: Time resolved fluorescence resonance energy transfer (TR-FRET) binding assay, bromodomain BRD4
# Conditions: one of the FRET assays described; read-out: FRET BRD4 IC50
row,Structure (SMILES),IC50
1,"[2H]C([2H])([2H])C(O)(c1cc2c(cn1)c1ncc(-c3c(C)noc3C)cc1n2[C@H](c1ccc(F)cc1)C1CCOCC1)C([2H])([2H])[2H] [Example 224, 2-[5-(Dimethyl-1,2-oxazol-4-yl)-8-[(S)-(4-fluorophenyl)(oxan-4-yl)methyl]-3,8,12-triazatricyclo[7.4.0.0^2,^7]trideca-1(13),2(7),3,5,9,11-hexaen-11-yl](^2H6)propan-2-ol]",< 10 nM
2,"[2H]C([2H])([2H])c1onc(C)c1-c1cnc2c3cnc(C(C)(C)O)cc3n([C@H](c3ccc(F)cc3)C3CCOCC3)c2c1 [Example 225, 2-{8-[(S)-(4-Fluorophenyl)(oxan-4-yl)methyl]-5-[5-(^2H3)methyl-3-methyl-1,2-oxazol-4-yl]-3,8,12-triazatricyclo[7.4.0.0^2,^7]trideca-1(13),2(7),3,5,9,11-hexaen-11-yl}propan-2-ol]",< 1 nM
3,"Cc1nnn(C)c1-c1cnc2c3ccc(Cl)nc3n([C@H](c3ccccc3F)C3CCOCC3)c2c1 [Example 226, 11-Chloro-5-(dimethyl-1H-1,2,3-triazol-5-yl)-8-[(S)-(2-fluorophenyl)(oxan-4-yl)methyl]-3,8,10-triazatricyclo[7.4.0.0^2,^7]trideca-1(13),2(7),3,5,9,11-hexaene]",< 10 nM
4,"Cc1nnn(C)c1-c1cnc2c3ccc(-c4c(C)nnn4C)nc3n([C@H](c3ccccc3F)C3CCOCC3)c2c1 [Example 227, 5,11-Bis(dimethyl-1H-1,2,3-triazol-5-yl)-8-[(S)-(2-fluorophenyl)(oxan-4-yl)methyl]-3,8,10-triazatricyclo[7.4.0.0^2,^7]trideca-1(13),2(7),3,5,9,11-hexaene]",< 1 nM
5,"CNCCN(C)c1ccc2c3ncc(-c4c(C)nnn4C)cc3n([C@H](c3ccccc3F)C3CCOCC3)c2n1 [Example 228, 5-(Dimethyl-1H-1,2,3-triazol-5-yl)-8-[(S)-(2-fluorophenyl)(oxan-4-yl)methyl]-N-methyl-N-[2-(methylamino)ethyl]-3,8,10-triazatricyclo[7.4.0.0^2,^7]trideca-1(13),2(7),3,5,9,11-hexaen-11-amine]",< 1 nM
6,"Cc1nnn(C)c1-c1cnc2c3ccc(-c4ccnn4C)nc3n([C@H](c3ccccc3F)C3CCOCC3)c2c1 [Example 229, 5-(Dimethyl-1H-1,2,3-triazol-5-yl)-8-[(S)-(2-fluorophenyl)(oxan-4-yl)methyl]-11-(1-methyl-1H-pyrazol-5-yl)-3,8,10-triazatricyclo[7.4.0.0^2,^7]trideca-1(13),2(7),3,5,9,11-hexaene]",< 10 nM
7,"Cc1nnn(C)c1-c1cnc2c3ccc(C4=CCN(C)CC4)nc3n([C@H](c3ccccc3F)C3CCOCC3)c2c1 [Example 230, 5-(Dimethyl-1H-1,2,3-triazol-5-yl)-8-[(S)-(2-fluorophenyl)(oxan-4-yl)methyl]-11-(1-methyl-1,2,3,6-tetrahydropyridin-4-yl)-3,8,10-triazatricyclo[7.4.0.0^2,^7]trideca-1(13),2(7),3,5,9,11-hexaene]",< 10 nM
8,"Cc1nnn(C)c1-c1cnc2c3ccc(N4CCN(C)CC4)nc3n([C@H](c3ccccc3F)C3CCOCC3)c2c1 [Example 231, 5-(Dimethyl-1H-1,2,3-triazol-5-yl)-8-[(S)-(2-fluorophenyl)(oxan-4-yl)methyl]-11-(4-methylpiperazin-1-yl)-3,8,10-triazatricyclo[7.4.0.0^2,^7]trideca-1(13),2(7),3,5,9,11-hexaene]",< 10 nM
9,"[2H]C([2H])([2H])c1nnn(C)c1-c1cnc2c3ccc(-c4c(C([2H])([2H])[2H])nnn4C)nc3n([C@H](c3ccccc3F)C3CCOCC3)c2c1 [Example 232, 8-[(S)-(2-Fluorophenyl)(oxan-4-yl)methyl]-5,11-bis[4-(^2H3)methyl-1-methyl-1H-1,2,3-triazol-5-yl]-3,8,10-triazatricyclo[7.4.0.0^2,^7]trideca-1(13),2(7),3,5,9,11-hexaene]",< 10 nM
10,"[2H]C([2H])([2H])c1nnn(C)c1-c1cnc2c3ccc(Cl)nc3n([C@H](c3ccccc3F)C3CCOCC3)c2c1 [Example 233, 11-Chloro-8-[(S)-(2-fluorophenyl)(oxan-4-yl)methyl]-5-[4-(^2H3)methyl-1-methyl-1H-1,2,3-triazol-5-yl]-3,8,10-triazatricyclo[7.4.0.0^2,^7]trideca-1(13),2(7),3,5,9,11-hexaene]",< 10 nM
11,"[2H]C([2H])([2H])c1nnn(C)c1-c1cnc2c3ccc(N4CCN(C)CC4)nc3n([C@H](c3ccccc3F)C3CCOCC3)c2c1 [Example 234, 8-[(S)-(2-Fluorophenyl)(oxan-4-yl)methyl]-5-[4-(^2H3)methyl-1-methyl-1H-1,2,3-triazol-5-yl]-11-(4-methylpiperazin-1-yl)-3,8,10-triazatricyclo[7.4.0.0^2,^7]trideca-1(13),2(7),3,5,9,11-hexaene]",< 10 nM
12,"[2H]C([2H])([2H])c1nnn(C)c1-c1cnc2c3ccc(S(C)(=O)=O)nc3n([C@H](c3ccccc3F)C3CCOCC3)c2c1 [Example 235, 8-[(S)-(2-Fluorophenyl)(oxan-4-yl)methyl]-11-methanesulfonyl-5-[4-(^2H3)methyl-1-methyl-1H-1,2,3-triazol-5-yl]-3,8,10-triazatricyclo[7.4.0.0^2,^7]trideca-1(13),2(7),3,5,9,11-hexaene]",< 10 nM
13,"[2H]C([2H])([2H])c1nnn(C)c1-c1cnc2c3ccc(N(C)CCNC)nc3n([C@H](c3ccccc3F)C3CCOCC3)c2c1 [Example 236, 8-[(S)-(2-Fluorophenyl)(oxan-4-yl)methyl]-N-methyl-5-[4-(^2H3)methyl-1-methyl-1H-1,2,3-triazol-5-yl]-N-[2-(methylamino)ethyl]-3,8,10-triazatricyclo[7.4.0.0^2,^7]trideca-1(13),2(7),3,5,9,11-hexaen-11-amine]",< 1 nM
14,"[2H]C([2H])([2H])c1nnn(C)c1-c1cnc2c3ccc(N4C[C@@H](C)O[C@@H](C)C4)nc3n([C@H](c3ccccc3F)C3CCOCC3)c2c1 [Example 237, 11-[(2R,6S)-2,6-Dimethylmorpholin-4-yl]-8-[(S)-(2-fluorophenyl)(oxan-4-yl)methyl]-5-[4-(^2H3)methyl-1-methyl-1H-1,2,3-triazol-5-yl]-3,8,10-triazatricyclo[7.4.0.0^2,^7]trideca-1(13),2(7),3,5,9,11-hexaene]",< 1 nM
15,"[2H]C([2H])([2H])c1nnn(C)c1-c1cnc2c3ccc(N(C)C)nc3n([C@H](c3ccccc3F)C3CCOCC3)c2c1 [Example 238, 8-[(S)-(2-Fluorophenyl)(oxan-4-yl)methyl]-N,N-dimethyl-5-[4-(^2H3)methyl-1-methyl-1H-1,2,3-triazol-5-yl]-3,8,10-triazatricyclo[7.4.0.0^2,^7]trideca-1(13),2(7),3,5,9,11-hexaen-11-amine]",< 10 nM
16,"[2H]C([2H])([2H])c1nnn(C)c1-c1cnc2c3ccc(NC)nc3n([C@H](c3ccccc3F)C3CCOCC3)c2c1 [Example 239, 8-[(S)-(2-Fluorophenyl)(oxan-4-yl)methyl]-N-methyl-5-[4-(^2H3)methyl-1-methyl-1H-1,2,3-triazol-5-yl]-3,8,10-triazatricyclo[7.4.0.0^2,^7]trideca-1(13),2(7),3,5,9,11-hexaen-11-amine]",< 10 nM
17,"Cc1nnn(C)c1-c1cnc2c3ccc(NS(C)(=O)=O)nc3n([C@H](c3ccccc3F)C3CCOCC3)c2c1 [Example 240, N-[5-(Dimethyl-1H-1,2,3-triazol-5-yl)-8-[(S)-(2-fluorophenyl)(oxan-4-yl)methyl]-3,8,10-triazatricyclo[7.4.0.0^2,^7]trideca-1(13),2(7),3,5,9,11-hexaen-11-yl]methanesulfonamide]",< 10 nM
